Consider one compound from article PMC4906375, “Contribution of Amphipathicity and Hydrophobicity to the Antimicrobial Activity and Cytotoxicity of β-Hairpin Peptides” (ACS Infectious Diseases, 2016).

The structures appear in SMILES notation. Values after ≈ are worked out from the molar mass of the structure shown. Like-named read-outs stand apart in the source and are kept apart here.

In one data set the test system is B. subtilis ATCC 6051. The data set is described as follows: microbe, parasite or virus in culture. Type of data set: cell-based, Bacillus subtilis. Particulars: ATCC 6051. As to the method: (§1) Both antibacterial and antifungal MIC assays were performed by a broth microdilution plate based method as per CLSI guidelines for antimicrobial susceptibility testing.[53],[54] […] Full assay details are included in the Supporting Information with a full list of strains tested in Table S1.
(§2) Antibacterial assay (Minimum Inhibitory Concentration [MIC]).
(§3) MIC assay was performed by a broth microdilution plate based method as per CLSI guidelines for antimicrobial susceptibility testing of aerobic bacteria.1 Compounds were prepared at 1.28 mg/mL solution in water. The tested strains, Table S1, were cultured in Luria broth (LB) (In Vitro Technologies, USB75852), at 37 °C overnight. A sample of culture was then diluted 40Pfold in fresh Muller Hinton broth (MHB) (Bacto laboratories, 211443) and incubated at 37 °C for 1.5P2 h. The compounds were serially diluted twoPfold across the wells, with compound concentrations ranging from 0.015 µg/mL to 512 µg/mL, plated in duplicate. The resultant midPlog phase cultures were diluted to the final concentration of 1×10^6 CFU/mL, then 50 µL was added to each well of the compoundP containing 96Pwell plates (Corning 3641, NonPbinding Surface [NBS]), giving a final compound concentration range of 0.008 µg/mL to 256 µg/mL and 5x10^5 CFU/mL. All the plates were covered and incubated at 37 °C for 18 h. MICs were determined visually, being defined as the lowest concentration showing no visible growth. Resazurin was added at 0.001% final concentration to each well and incubated for 2 h before MICs were rePread for confirmation using the colour change from blue to pink to indicate wells containing viable cells. The resazurin assay was added in some wells where some form of precipitate was present in otherwise clear wells, making it difficult to ascertain which wells had visible […]
(§4) Antifungal assay (Minimum Inhibitory Concentration [MIC]). MIC assay was performed by a broth microdilution plate based method as per CLSI guidelines for antimicrobial susceptibility testing.2 Fungi strains, Table S1, were cultured for 3 days on Yeast ExtractPPeptone Dextrose (YPD) (SigmaPAldrich, Y1500) agar at 30 °C. A yeast suspension of 1x10^6 to 5x10^6 CFU/mL was prepared from five colonies. These stock suspensions were diluted with Yeast Nitrogen Base (YNB) (Becton Dickinson, 233520) broth to a final concentration of 2.5 ×10^3 CFU/mL. All samples, compounds and standards were plated in 96Pwell plates (Corning 3641, NonPbinding Surface [NBS]), by adding 10 µL of 1.28 mg/mL stock solution to each well and 90 µL of media. Then, the samples were serial diluted (1:2) in 12 concentrations across the plate. The standard antifungal ranged from 256

In a further data set the test system is human erythrocytes. Conditions: red cells of human, 3 h.
The next data set relates to P. aeruginosa ATCC 27853. It is filed as cell-based, Pseudomonas aeruginosa. Particulars: ATCC 27853. How it is done:
as §1, §2, §3, §4

Data set [1] has as its system E. coli ATCC 25922 cytoplasmic membrane. In words: Inner membrane permeability measured by SYTOX green fluorescence emission. Particulars: SYTOX green, E. coli ATCC 25922, 1 h.
Data set [2] is described as follows: Cytotoxicity, Alamar Blue (resazurin) assay. It is filed as cell-based, human. Particulars: human. How it is done:
Cytotoxicity to HEK293 and HepG2 cells was determined using the Alamar Blue (resazurin) assay,[55],[56] with 24 h of incubation and either 1 or 10% serum concentration. Full assay details are included in the Supporting Information.
Cytotoxicity. Cytotoxicity to HEK293 and HepG2 cells was determined using the Alamar Blue (resazurin) assay,3, 4 For the assays supplemented with 1 % FBS as final concentration the cells were seeded one day prior to the assay (3,000 per 20 µL for HEK293 and 4,000 per 20 µL for HepG2) with DMEM + 2 % FBS. The compounds were prepared as described below, using DMEM with no FBS instead to give the final FBS concentration of 1 %.
The highest concentration the compounds were tested was 300 µg/mL. A dilution series of 1:3 fold steps in DMEM (GIBCOPInvitrogen, cat. no. 11995P073) + 10 % FBS was created (concentration range of 600 µg/mL – 0.28 µg/mL), and 20 µL of these 2x concentrated compound dilutions were added in duplicates to wells of a black wall, clear bottom 384Pwells cell culture plate. For the assays with 1 % FBS the compounds in 0 % FBS were added to the existing cell plates in 2 % FBS. 200 µM Tamoxifen (Sigma T5648) served as negative control and in addition a serial dilution of tamoxifen, starting at 200 µM (74 µg/mL), was included as a dose response control (1 in 2 dilution series for tamoxifen). For the assay with 10 % FBS, HepG2 cells were seeded at 5000 cells per well, in a volume of 20 µL in DMEM medium + 10 % of FBS and added to the 20 µL of compound solution (total volume of 40 µL), resulting in a final compound concentration range of 300 µg/mL to 0.14 µg/mL.
Cells were incubated together with the compounds for 20 h at 37 °C, 5 % CO2.
After the incubation, 5 µL of 100 µM (25 µg/mL) resazurin dissolved in PBS (final concentration was approximately 11 µM) was added to each well. The plates were then incubated for 3 h at 37 °C, 5 % CO2. The fluorescence intensity was read using the TECAN Infinite M1000 PRO with excitation/emission 560/590. The data was analysed by Graph Pad Prism software. Results are presented as the average percentage of control ± SD for each set of duplicate wells using the following equation: Cell survival % = (FISAMPLE – FINegative/FIUNTREATED –FINegative)*100. (100 µg/mL tamoxifen was set as 0 % survival, media
(The colour change of resazurin is a common sign of viable cells or microbes.)

Data set [3] is described as follows: Plasma protein binding, ultrafiltration. It is filed as in vitro ADME. Particulars: 100% human plasma, read-out: PPB (%) (converted). How it is done:
Plasma protein binding was performed using an ultrafiltration method.[58]
Plasma protein binding assay
Plasma protein binding was performed using an Ultrafiltration method.13 Fresh frozen human plasma was pooled from O Negative (Product number 1274512) blood from the R & D division of the Australian Red Cross Blood Services (Brisbane). Stock solutions (20 mg/mL) of the test compounds were prepared in H2O. Test compounds (40 µg/mL) were incubated in 100 % human plasma at 37 °C for 30 min (1 mL volume). For unfiltered samples, an aliquot (50 µL) was removed, diluted with PBS (50 µL) and quenched with icePcold precipitating solution comprising 0.5 µM carbutamide MS internal standard in acetonitrile : methanol : formic acid (1: 1 : 0.001). Samples were incubated at 4 °C for 30 min then centrifuged at 14000 × g for 8 min, with the clear supernatant transferred to a vial for LC/MS/MS analysis.
For filtered samples, the plasma sample (250 µL) was filtered using Amicon UltraP0.5 Centrifugal Filter Devices 30K NMWL at 14000 × g for 7 min and then an aliquot (50 µL) was processed as described for unfiltered samples. The fraction of unbound compound was calculated by determining the concentration of the filtered sample and the concentration of unfiltered sample. All samples were performed in triplicate with sulfamethoxazole as a […]

Data set [4] has as its system E. coli ATCC 25922 cytoplasmic membrane. Conditions: not told.
For a further data set, the system named is K. pneumoniae ATCC 13883. It is filed as cell-based, Klebsiella pneumoniae. Particulars: ATCC 13883. How it is done:
as §1, §2, §3, §4

The next data set concerns A. baumannii ATCC 19606. Type of data set: cell-based, Acinetobacter baumannii. Conditions: ATCC 19606. As to the method: as §1, §2, §3, §4
In data set [5] the test system is E. coli ATCC 700926 (K12). It is filed as cell-based, Escherichia coli. Conditions: ATCC 700926. As to the method: as §1, §2, §3, §4
Data set [6] relates to E. coli ATCC 25922 (control strain). Type of data set: cell-based, Escherichia coli. Conditions: ATCC 25922. How it is done: as §1, §2, §3, §4
For data set [7] the following is noted: hemolysis (%) at 300 μg/mL, human erythrocytes, 3 h, relative to 100% hemolysis by 1% Triton X-100.

As for `CC(C)C[C@H](NC(=O)[C@H](CCCNC(=N)N)NC(=O)CNC(=O)CNC(=O)[C@@H](N)CCCNC(=N)N)C(=O)N[C@H]1CSSC[C@@H](C(=O)N[C@H](C(=O)NCC(=O)N[C@@H](CCCNC(=N)N)C(N)=O)C(C)C)NC(=O)[C@H](C(C)C)NC(=O)[C@@H]2CSSC[C@H](NC(=O)[C@H](Cc3ccc(O)cc3)NC1=O)C(=O)N[C@@H](CCCNC(=N)N)C(=O)N[C@@H](CCCNC(=N)N)C(=O)N[C@@H](CCCNC(=N)N)C(=O)N[C@@H](Cc1ccccc1)C(=O)N2` [protegrin-1], the MIC against B. subtilis ATCC 6051 amounted to 0.03 µg/mL (≈ 0.0139 µM); against P. aeruginosa ATCC 27853, 4 µg/mL (≈ 1.86 µM); against K. pneumoniae ATCC 13883, 0.5 µg/mL (≈ 0.232 µM); with A. baumannii ATCC 19606, 0.25 µg/mL (≈ 0.116 µM); in data set [5] it was 0.25 µg/mL (≈ 0.116 µM); in data set [6], 2 µg/mL (≈ 0.928 µM). Moreover, the “hemolysis (%) at 300 μg/mL” value in the data set with human erythrocytes is listed as 64.8 ± 3.5%. Moreover, the “permeabilisation of the E. coli cytoplasmic membrane at lethal concentrations” value in data set [1] is “permeabilise”. The CC50 at 24 h in [2] (HEK293 cells, HEK293, 1% FBS, read-out: cytotoxicity HEK293 1% FBS) is 19.6 ± 1.2 µg/mL (≈ 9.09 µM); in data set [2] (HEK293 cells, HEK293, 10% FBS, read-out: cytotoxicity HEK293 10% FBS), 93.9 ± 1.1 µg/mL (≈ 43.6 µM); in data set [2] (HepG2 cells, HepG2, 1% FBS, read-out: cytotoxicity HepG2 1% FBS), 31.4 ± 2 µg/mL (≈ 14.6 µM); in data set [2] (HepG2 cells, HepG2, 10% FBS, read-out: cytotoxicity HepG2 10% FBS), 96.1 ± 1.1 µg/mL (≈ 44.6 µM). For the same compound, the fraction unbound in [3] is 0.11. In [4], the “permeabilization concentration relative to MIC” value is recorded as “lower concentration than their MIC”. Also, the hemolysis in [7] was 65%.
